Measurements taken from patent US12649735B2 (HAIHE BIOPHARMA CO., LTD., priority 2019, dated 2026).

Columns and labels:
[1] = system: BRD4-BD2; details: cited from earlier work
[2] = system: acute leukemia tumors; details: mice, administered orally, 60 mg/kg per day; cited from earlier work
[3] = biological target: T1, bromodomain protein BRD4 BD1 (Homo sapiens, UniProt O60885); assay: HTRF in vitro assay, inhibitory activity against BRD4 BD1; type: binding; details: BRD4(1) 30 nM in final system
T1 construct: The proteins BRD4 BD1/BD2 used in the experiment were purchased from Active Motif Company (Cat. No. 31380/31446); purchased Active Motif 31380
Protocol: In this example, the half inhibitory activity (IC50) of the compounds of the present invention against the bromodomain protein BRD4 BD1 was determined.
(§1) The inhibitory activity of the compound against BRD4 BD1 was determined by using Homogeneous Time-Resolved Fluorescence (HTRF).
(§2) The proteins BRD4 BD1/BD2 used in the experiment were purchased from Active Motif Company (Cat. No. 31380/31446); Streptavidin XL-665 (#610SAXLA) and EPIgeneous Binding Domain Kit A (#62BDAPEG) were purchased from Cisbio Bioassays Company, [Lys(5,8,12,16)Ac]H4(1-21)-biotin (#64989), and [Lys(5,8,12,16)Ac]H4(1-25) were products of AnaSpec company; OTX015 and ABBV-075 were purchased from SelleckChem. 384 Well ProxiPlate (#6008280) was purchased from PerkinElmer. The multifunctional microplate reader used for the experimental was a product of PerkinElmer, model: Envision 2104. The experimental water was Millipore-Q pure water.
(§3) 10 mM of stock solution of compound in DMSO was diluted to 1 mM with DMSO and stored, and then diluted 10 times with Binding Domain dilution buffer (purchased from Cisbio Bioassays) for use (the concentration of DMSO in the final system was […]), 1:5 gradient dilution, a total of 5 concentrations.
(§4) 4. Test Method: 1 Batch, 2 Duplicate Wells
(§5) • 1) 5 μL of test compound was transferred to 45 μL of Binding Domain dilution buffer. • 2) 2 μL of 10× compound (4 μL Binding Domain dilution buffer: positive control; 6 μL enzyme buffer (purchased from Cisbio Bioassays): negative control) was transferred to the reaction plate. • 3) 4 μL of 5×BRD4(1) or BRD4(2) (30 nM in final system) was added to the reaction plate. • 4) 4 μL of 5×[Lys(5,8,12,16)Ac]H4(1-21)-biotin was added to the reaction plate, and the plate was covered with a film, and incubated at 37° C. for 30 min. • 5) A detection mixture of SA-XL665 (2×) and anti-H3K9me0-Eu(K) (2×) was prepared in detection buffer (purchased from Cisbio Bioassays). • 6) 10 μL of detection mixture (2×) was added to each well, and incubated for 3 h at room temperature, and the mp value was read using a multi-plate reader Envision. The parameters were set as follows.

[4] = biological target: T2, bromodomain protein BRD4 BD2 (Homo sapiens, UniProt O60885); assay: HTRF in vitro assay, inhibitory activity against BRD4 BD2; type: binding; details: BRD4(2) 30 nM in final system
T2 construct: The proteins BRD4 BD1/BD2 used in the experiment were purchased from Active Motif Company (Cat. No. 31380/31446); purchased Active Motif 31446
Protocol: as §1, §2, §3, §4, §5

In the case of `CCNC(=O)c1cc2c(-c3cc(C(C)(C)O)ccc3Oc3c(C)cc(F)cc3C)cn(C)c(=O)c2[nH]1` [Abbv744], the “selectivity (BD2/BD1)” value [1] is given as > 100 times.
In the case of `Cc1noc2c1-c1ccccc1C(c1ccc(Cl)cc1)=N[C@H]2CC(N)=O` [CPI-0610], the “inhibits acute leukemia tumors” value [2] is listed as 41%.
Work on `Cn1cc(C(CCO)c2ccccn2)c2cc(C(=O)NC3CC3)[nH]c2c1=O` (stereo not shown) [Compound A9, N-cyclopropyl-4-(3-hydroxy-1-(pyridin-2-yl)propyl)-6-methyl-7-oxo-6,7-dihydro-1H-pyrrolo[2,3-c]pyridin-2-carboxamide] yielded an IC50 [3] of 100 to 1000 nM and an IC50 [4] of 10 to 100 nM.
With `CCNC(=O)c1cc2c(C(c3ccccc3)c3ccccc3O)cn(C)c(=O)c2[nH]1` (stereo not shown) [Compound A28] the IC50 [3] was 100 to 1000 nM and the IC50 [4] was 10 to 100 nM.
Molecule `COc1ccc(C(c2ccccc2)c2cn(C)c(=O)c3[nH]c(C(=O)Nc4cnn(C)c4)cc23)cc1` (stereo not shown) [Compound A38, 4-((4-methoxyphenyl)(phenyl)methyl)-6-methyl-N-(1-methyl-1H-pyrazol-4-yl)-7-oxo-6,7-dihydro-1H-pyrrolo[2,3-c]pyridin-2-carboxamide] has an IC50 [3] of 100 to 1000 nM and an IC50 [4] of 10 to 100 nM.
`CCNC(=O)n1cc2c(Cc3ccccc3)cn(C)c(=O)c2c1` [Compound A3, 7-benzyl-N-ethyl-5-methyl-4-oxo-4,5-dihydro-2H-pyrrolo[3,4-c]pyridin-2-carboxamide] showed an IC50 [3] of 100 to 1000 nM and an IC50 [4] of 10 to 100 nM.
In the case of `Cc1ccc(-n2c(-c3cn(C)c(=O)c4[nH]c(-c5cnn(C)c5)cc34)nc3ncccc32)cc1` [Compound A50], the IC50 [3] is reported as 10 to 100 nM and the IC50 [4] is reported as 10 to 100 nM.
With `CC(c1ccc(N2CCN(C)CC2)cc1)c1cn(C)c(=O)c2[nH]c(-c3cnn(C4COC4)c3)cc12` (stereo not shown) [Compound A63, 6-methyl-4-(1-(4-(4-methylpiperazin-1-yl)phenyl)ethyl)-2-(1-(oxetan-3-yl)-1H-pyrazol-4-yl)-1,6-dihydro-7H-pyrrolo[2,3-c]pyridin-7-one] the IC50 [3] was 100 to 1000 nM and the IC50 [4] was 10 to 100 nM.
`Cn1cc(C(c2ccccc2)c2ccccc2)c2cc(-c3cnn(C4COC4)c3)[nH]c2c1=O` [Compound A71] showed an IC50 [3] of 100 to 1000 nM and an IC50 [4] of 10 to 100 nM.
Molecule `CC(c1ccccc1)c1cn(C)c(=O)c2[nH]c(-c3cnoc3)cc12` (stereo not shown) [Compound A20, 2-(isoxazol-4-yl)-6-methyl-4-(1-phenethyl)-1H-pyrrolo[2,3-c]pyridin-7(6H)-one] has an IC50 [3] of 100 to 1000 nM and an IC50 [4] of 10 to 100 nM.
With `CC(c1cccc(F)c1F)c1cn(C)c(=O)c2[nH]c(-c3cnn(C4COC4)c3)cc12` (stereo not shown) [Compound A74, 4-(1-(2,3-difluorophenyl)ethyl)-6-methyl-2-(1-(oxetan-3-yl)-1H-pyrazol-4-yl)-1,6-dihydro-7H-pyrrolo[2,3-c]pyridin-7-one] the IC50 [3] was 100 to 1000 nM and the IC50 [4] was ≤ 10 nM.
`Cn1cc(-c2cc3c(C(O)c4ccccc4)cn(C)c(=O)c3[nH]2)cn1` (stereo not shown) [Compound A44] showed an IC50 [3] of 100 to 1000 nM and an IC50 [4] of 10 to 100 nM.
